In the supplement of paper PMC10307832 one finds relative viability data, which are given here for 9 cell lines.

Holding throughout (test): relative viability (nuclei count vs DMSO), 5 days (fraction); higher = more cells survive
Compound in the assay “CUDC-101 + Pictilisib”: C#Cc1cccc(Nc2ncnc3cc(OC)c(OCCCCCCC(=O)NO)cc23)c1 [CUDC-101] + CS(=O)(=O)N1CCN(Cc2cc3nc(-c4cccc5[nH]ncc45)nc(N4CCOCC4)c3s2)CC1 [Pictilisib] (partner 1 µM)
Put shortly:
(§1)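 Values are medians from duplicate plates. Each reflects relative viability, defined as the nuclei count of treated wells over that of vehicle wells. Lung cancer cell lines in 1536-well plates were pin-tool dosed one day after seeding with one drug alone or with a fixed anchor-drug dose plus five library-drug doses (not always all listed) in √10 steps, then fixed, stained and imaged at 4× after 5 days.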

Compound in assay [1]: C1=CC=C2C(=C1)N=C(S2)C(C#N)C3=NC(=NC=C3)NCCC4=CN=CC=C4 + CCNC(=O)c1noc(-c2cc(C(C)C)c(O)cc2O)c1-c1ccc(CN2CCOCC2)cc1 [Luminespib] (partner 0.01 µM)
The essentials:
as §1

Compound in the assay “NVP-TAE684 + Pictilisib”: COc1cc(N2CCC(N3CCN(C)CC3)CC2)ccc1Nc1ncc(Cl)c(Nc2ccccc2S(=O)(=O)C(C)C)n1 [NVP-TAE684] + CS(=O)(=O)N1CCN(Cc2cc3nc(-c4cccc5[nH]ncc45)nc(N4CCOCC4)c3s2)CC1 [Pictilisib] (partner 1 µM)
Put shortly:
as §1

Compound in the assay “NVP-TAE684 + Alpelisib”: COc1cc(N2CCC(N3CCN(C)CC3)CC2)ccc1Nc1ncc(Cl)c(Nc2ccccc2S(=O)(=O)C(C)C)n1 [NVP-TAE684] + Cc1nc(NC(=O)N2CCC[C@H]2C(N)=O)sc1-c1ccnc(C(C)(C)C(F)(F)F)c1 [Alpelisib] (partner 2 µM)
The essentials: as §1

As for NCI-H1993, the relative viability is 0.845 with CUDC-101 + Pictilisib (first compound 0.01 µM); 0.824 in the assay with CUDC-101 + Pictilisib (first compound 0.03162 µM); 0.918 in the assay with CUDC-101 + Pictilisib (first compound 0.1 µM); 0.763 in the assay with CUDC-101 + Pictilisib (first compound 0.3162 µM); 0.869 in the assay with CUDC-101 + Pictilisib (first compound 1 µM); 0.846 in assay [1] (first compound 0.005 µM). Also, the relative viability came out at 0.852 in assay [1] (first compound 0.01581 µM); 0.821 in assay [1] (first compound 0.05 µM); 0.834 in assay [1] (first compound 0.1581 µM); 0.738 in assay [1] (first compound 0.5 µM); 0.781 with NVP-TAE684 + Pictilisib (first compound 0.6325 µM); 0.832 with NVP-TAE684 + Pictilisib (first compound 2 µM). Moreover, the relative viability with NVP-TAE684 + Alpelisib (first compound 0.6325 µM) was found to be 0.7; with NVP-TAE684 + Alpelisib (first compound 2 µM), 0.696.

In the case of NCI-H2009, the relative viability stood at 0.813 with CUDC-101 + Pictilisib (first compound 0.01 µM); 0.824 with CUDC-101 + Pictilisib (first compound 0.03162 µM); 0.963 with CUDC-101 + Pictilisib (first compound 0.1 µM); 0.917 in the assay with CUDC-101 + Pictilisib (first compound 0.3162 µM); 0.699 with CUDC-101 + Pictilisib (first compound 1 µM); 1.1 in assay [1] (first compound 0.005 µM). The relative viability in assay [1] (first compound 0.01581 µM) is 1.09; in assay [1] (first compound 0.05 µM), 1.05; in assay [1] (first compound 0.1581 µM), 1.07; in assay [1] (first compound 0.5 µM), 1.05; with NVP-TAE684 + Pictilisib (first compound 0.2 µM), 0.949; with NVP-TAE684 + Pictilisib (first compound 0.6325 µM) it was 0.68. Further, the relative viability came to 0.514 in the assay with NVP-TAE684 + Pictilisib (first compound 2 µM), 1.11 in the assay with NVP-TAE684 + Alpelisib (first compound 0.2 µM), 1.14 in the assay with NVP-TAE684 + Alpelisib (first compound 0.6325 µM) and 0.927 with NVP-TAE684 + Alpelisib (first compound 2 µM).

With NCI-H2023, the relative viability with CUDC-101 + Pictilisib (first compound 0.01 µM) came out at 0.245; in the assay with CUDC-101 + Pictilisib (first compound 0.03162 µM), 0.223; with CUDC-101 + Pictilisib (first compound 0.1 µM), 0.257; in the assay with CUDC-101 + Pictilisib (first compound 0.3162 µM) it was 0.226; with CUDC-101 + Pictilisib (first compound 1 µM), 0.151; in assay [1] (first compound 0.005 µM), 0.994. Also, the relative viability in assay [1] (first compound 0.01581 µM) worked out at 1; in assay [1] (first compound 0.05 µM), 0.901; in assay [1] (first compound 0.1581 µM), 1.03; in assay [1] (first compound 0.5 µM), 0.765; with NVP-TAE684 + Pictilisib (first compound 0.2 µM), 0.244; with NVP-TAE684 + Pictilisib (first compound 0.6325 µM), 0.137. For the same cell line, the relative viability came to 0.109 with NVP-TAE684 + Pictilisib (first compound 2 µM), 0.589 with NVP-TAE684 + Alpelisib (first compound 0.2 µM), 0.537 in the assay with NVP-TAE684 + Alpelisib (first compound 0.6325 µM) and 0.308 in the assay with NVP-TAE684 + Alpelisib (first compound 2 µM).

For NCI-H2085, the relative viability with CUDC-101 + Pictilisib (first compound 0.01 µM) amounted to 0.539; with CUDC-101 + Pictilisib (first compound 0.03162 µM) it was 0.549; in the assay with CUDC-101 + Pictilisib (first compound 0.1 µM) it was 0.493; with CUDC-101 + Pictilisib (first compound 0.3162 µM), 0.489; with CUDC-101 + Pictilisib (first compound 1 µM), 0.304; in assay [1] (first compound 0.005 µM), 0.439. In addition, the relative viability in assay [1] (first compound 0.01581 µM) was 0.368; in assay [1] (first compound 0.05 µM) it was 0.4; in assay [1] (first compound 0.1581 µM), 0.388; in assay [1] (first compound 0.5 µM) it was 0.413; with NVP-TAE684 + Pictilisib (first compound 0.2 µM), 0.445; in the assay with NVP-TAE684 + Pictilisib (first compound 0.6325 µM) it was 0.427. The relative viability amounted to 0.415 in the assay with NVP-TAE684 + Pictilisib (first compound 2 µM), 0.934 in the assay with NVP-TAE684 + Alpelisib (first compound 0.2 µM), 0.897 with NVP-TAE684 + Alpelisib (first compound 0.6325 µM) and 0.712 in the assay with NVP-TAE684 + Alpelisib (first compound 2 µM).

Consider NCI-H2087, for which the relative viability is 0.985 in the assay with CUDC-101 + Pictilisib (first compound 0.01 µM); 1.03 in the assay with CUDC-101 + Pictilisib (first compound 0.03162 µM); 1.11 in the assay with CUDC-101 + Pictilisib (first compound 0.1 µM); 1.11 with CUDC-101 + Pictilisib (first compound 0.3162 µM); 0.603 with CUDC-101 + Pictilisib (first compound 1 µM); 0.163 in assay [1] (first compound 0.005 µM). Besides, the relative viability was 0.159 in assay [1] (first compound 0.01581 µM); 0.222 in assay [1] (first compound 0.05 µM); 0.2 in assay [1] (first compound 0.1581 µM); 0.15 in assay [1] (first compound 0.5 µM); 0.942 with NVP-TAE684 + Pictilisib (first compound 0.2 µM); 0.886 with NVP-TAE684 + Pictilisib (first compound 0.6325 µM). The relative viability with NVP-TAE684 + Pictilisib (first compound 2 µM) is 0.858; in the assay with NVP-TAE684 + Alpelisib (first compound 0.2 µM) it was 1.07; with NVP-TAE684 + Alpelisib (first compound 0.6325 µM), 1.04; with NVP-TAE684 + Alpelisib (first compound 2 µM) it was 1.01.

In the case of NCI-H2126, the relative viability with CUDC-101 + Pictilisib (first compound 0.01 µM) turned out to be 0.501; in the assay with CUDC-101 + Pictilisib (first compound 0.03162 µM), 0.545; in the assay with CUDC-101 + Pictilisib (first compound 0.1 µM) it was 0.432; in the assay with CUDC-101 + Pictilisib (first compound 0.3162 µM), 0.446; with CUDC-101 + Pictilisib (first compound 1 µM), 0.315; in assay [1] (first compound 0.005 µM) it was 0.561. Further, the relative viability in assay [1] (first compound 0.01581 µM) stood at 0.87; in assay [1] (first compound 0.05 µM), 0.73; in assay [1] (first compound 0.1581 µM), 0.997; in assay [1] (first compound 0.5 µM), 0.836; in the assay with NVP-TAE684 + Pictilisib (first compound 0.2 µM), 0.491; in the assay with NVP-TAE684 + Pictilisib (first compound 0.6325 µM), 0.501. Besides, the relative viability amounted to 0.428 with NVP-TAE684 + Pictilisib (first compound 2 µM), 0.756 in the assay with NVP-TAE684 + Alpelisib (first compound 0.2 µM), 0.811 with NVP-TAE684 + Alpelisib (first compound 0.6325 µM) and 0.65 in the assay with NVP-TAE684 + Alpelisib (first compound 2 µM).

NCI-H2170: the relative viability turned out to be 0.317 with CUDC-101 + Pictilisib (first compound 0.01 µM); 0.297 with CUDC-101 + Pictilisib (first compound 0.03162 µM); 0.289 with CUDC-101 + Pictilisib (first compound 0.1 µM); 0.275 in the assay with CUDC-101 + Pictilisib (first compound 0.3162 µM); 0.169 with CUDC-101 + Pictilisib (first compound 1 µM); 0.702 in assay [1] (first compound 0.005 µM). Also, the relative viability in assay [1] (first compound 0.01581 µM) is 0.803; in assay [1] (first compound 0.05 µM) it was 0.621; in assay [1] (first compound 0.1581 µM), 1.01; in assay [1] (first compound 0.5 µM) it was 0.894; in the assay with NVP-TAE684 + Pictilisib (first compound 0.2 µM) it was 0.272; with NVP-TAE684 + Pictilisib (first compound 0.6325 µM) it was 0.248. For the same cell line, the relative viability with NVP-TAE684 + Pictilisib (first compound 2 µM) was found to be 0.275; in the assay with NVP-TAE684 + Alpelisib (first compound 0.2 µM) it was 0.702; with NVP-TAE684 + Alpelisib (first compound 0.6325 µM), 0.789; with NVP-TAE684 + Alpelisib (first compound 2 µM) it was 0.672.

NCI-H2228: the relative viability in the assay with CUDC-101 + Pictilisib (first compound 0.01 µM) worked out at 0.246; with CUDC-101 + Pictilisib (first compound 0.03162 µM) it was 0.485; in the assay with CUDC-101 + Pictilisib (first compound 0.1 µM), 0.494; with CUDC-101 + Pictilisib (first compound 0.3162 µM), 0.36; with CUDC-101 + Pictilisib (first compound 1 µM), 0.252; in assay [1] (first compound 0.005 µM), 0.146. Further, the relative viability in assay [1] (first compound 0.01581 µM) came to 0.117; in assay [1] (first compound 0.05 µM), 0.153; in assay [1] (first compound 0.1581 µM), 0.163; in assay [1] (first compound 0.5 µM), 0.142; with NVP-TAE684 + Pictilisib (first compound 0.2 µM), 0.281; with NVP-TAE684 + Pictilisib (first compound 0.6325 µM) it was 0.167. For the same cell line, the relative viability with NVP-TAE684 + Pictilisib (first compound 2 µM) amounted to 0.223; with NVP-TAE684 + Alpelisib (first compound 0.2 µM), 0.381; in the assay with NVP-TAE684 + Alpelisib (first compound 0.6325 µM) it was 0.255; in the assay with NVP-TAE684 + Alpelisib (first compound 2 µM), 0.153.

Take NCI-H2347: the relative viability was found to be 0.711 with CUDC-101 + Pictilisib (first compound 0.01 µM); 0.658 with CUDC-101 + Pictilisib (first compound 0.03162 µM); 0.794 with CUDC-101 + Pictilisib (first compound 0.1 µM); 0.436 in the assay with CUDC-101 + Pictilisib (first compound 0.3162 µM); 0.569 with CUDC-101 + Pictilisib (first compound 1 µM); 0.811 in assay [1] (first compound 0.005 µM). Moreover, the relative viability was 0.355 in assay [1] (first compound 0.01581 µM); 0.381 in assay [1] (first compound 0.05 µM); 0.488 in assay [1] (first compound 0.1581 µM); 0.363 in assay [1] (first compound 0.5 µM); 0.572 with NVP-TAE684 + Pictilisib (first compound 0.2 µM); 0.482 with NVP-TAE684 + Pictilisib (first compound 0.6325 µM). Besides, the relative viability was determined as 0.597 in the assay with NVP-TAE684 + Pictilisib (first compound 2 µM), 1.14 in the assay with NVP-TAE684 + Alpelisib (first compound 0.2 µM), 1.07 in the assay with NVP-TAE684 + Alpelisib (first compound 0.6325 µM) and 0.906 with NVP-TAE684 + Alpelisib (first compound 2 µM).
